We go through four sequences from patent publication US20070128217A1 (priority 2003, published 2007).

Assay [1] has as its system control sera (pooled serum of ten healthy LUMC hospital workers; commercial negative donor pooled serum from the Dutch bloodbank). The format is binding, human. Set-up: Binding of Control serum LUMC to linear peptides / Binding of Control serum Blood-bank to linear peptides / Binding of Control serum LUMC to looped peptides / Binding of Control Serum Blood-Bank to Looped peptides / Binding of Control serum LUMC to linear peptides of the protein M of SARS-CoV Urbani / Binding of Control serum Blood-bank to linear peptides of the protein M of SARS-CoV Urbani / Binding of Control serum LUMC to looped peptides of the protein M of SARS-CoV Urbani / Binding of Control Serum Blood-Bank to Looped peptides of the protein M of SARS-CoV Urbani: unit not given here.

For assay [2], the system named is antibodies in sera from SARS patients (sera 1a, 1b, 2, 6, 37, 62, London, SARS-yellow, SARS-green). The format is binding, human. Set-up: Binding of serum 6 to linear peptides of protein X1 of SARS-CoV Urbani / Binding of serum 37 to linear peptides of protein X1 of SARS-CoV Urbani / Binding of serum 6 to looped/cyclic peptide (PEPSCAN-ELISA) / Binding of serum 37 to looped/cyclic peptide (PEPSCAN-ELISA) / Binding of serum 37 to looped/cyclic peptides of protein X1 of SARS-CoV Urbani / Binding of serum 6 to linear peptides of protein X2 / Binding of serum 37 to linear peptides of protein X2 / Binding of serum 37 to looped/cyclic peptides of protein X2 of SARS-CoV Urbani / Binding of serum 6 to linear peptides of protein M of SARS-CoV Urbani / Binding of serum 37 to linear peptides of protein M of SARS-CoV Urbani / Binding of serum 6 to looped/cyclic peptides of protein M of SARS-CoV Urbani / Binding of serum 37 to looped/cyclic peptides of protein M of SARS-CoV Urbani / Binding of serum 6 to linear peptides of protein X3 of SARS-CoV Urbani / Binding of serum 37 to linear peptides of protein X3 of SARS-CoV Urbani / Binding of serum 37 to looped/cyclic peptides of protein X3 of SARS-CoV Urbani / Binding of serum 6 to linear peptides of protein X4 of SARS-CoV Urbani / Binding of serum 37 to linear peptides of protein X4 of SARS-CoV Urbani / Binding of serum 37 to looped/cyclic peptides of protein X4 of SARS-CoV Urbani / Binding of serum 6 to linear peptides of protein X5 of SARS-CoV Urbani / Binding of serum 37 to linear peptides of protein X5 of SARS-CoV Urbani / Binding of serum 37 to looped/cyclic peptides of protein X5 of SARS-CoV Urbani / Binding of serum 6 to linear peptides of protein N of SARS-CoV Urbani / Binding of serum 37 to linear peptides of protein N of SARS-CoV Urbani / Binding of serum 6 to linear peptide (PEPSCAN-ELISA) / Binding of serum 1a to looped/cyclic peptides of protein N of SARS-CoV Urbani / Binding of serum 1b to looped/cyclic peptides of protein N of SARS-CoV Urbani / Binding of serum 2 to looped/cyclic peptides of protein N of SARS-CoV Urbani / Binding of serum 6 to looped/cyclic peptides of protein N of SARS-CoV Urbani / Binding of serum 37 to looped/cyclic peptides of protein N of SARS-CoV Urbani / Binding of serum 62 to looped/cyclic peptides of protein N of SARS-CoV Urbani / Binding of serum London to looped/cyclic peptides of protein N of SARS-CoV Urbani / Binding of serum SARS-green to looped/cyclic peptides of protein N of SARS-CoV Urbani: unit not given here.

Assay [3] relates to rabbit serum obtained by immunizing a rabbit with the SARS-CoV strain Frankfurt 1. Type of assay: binding. More on the design: Binding of a rabbit serum to linear peptides / Binding of a rabbit serum to looped peptides / Rabbit serum linear peptides / Rabbit serum looped peptides / Binding of a rabbit serum to linear peptides of protein N of SARS-CoV Urbani (Rabbit serum linear peptides) / Binding of a rabbit serum to looped/cyclic peptides of protein N of SARS-CoV Urbani (Rabbit serum looped peptides): unit not given here.

Turning to EAQFLYLYALIYFLQ, in assay [1], the “Binding of Control Serum Blood-Bank to Looped peptides” value turned out to be 0.4, the “Binding of Control serum Blood-bank to linear peptides” value is 0.3, the “Binding of Control serum LUMC to linear peptides” value amounted to 0.5 and the “Binding of Control serum LUMC to looped peptides” value is 0.5. For the same sequence, in assay [2], the “Binding of serum 1a to linear peptides of protein X1 of SARS-CoV Urbani” value was 0.7, the “Binding of serum 1a to looped/cyclic peptide (PEPSCAN-ELISA)” value came to 0.5, the “Binding of serum 1b to linear peptides of protein X1 of SARS-CoV Urbani” value turned out to be 0.4 and the “Binding of serum 1b to looped/cyclic peptide (PEPSCAN-ELISA)” value stood at 0.3. Further, in assay [2], the “Binding of serum 2 to linear peptides of protein X1 of SARS-CoV Urbani” value worked out at 0.6, the “Binding of serum 2 to looped/cyclic peptide (PEPSCAN-ELISA)” value came out at 0.4, the “Binding of serum 6 to linear peptides of protein X1 of SARS-CoV Urbani” value was found to be 0.4 and the “Binding of serum 6 to looped/cyclic peptide (PEPSCAN-ELISA)” value came to 0.2. In assay [2], the “Binding of serum 37 to linear peptides of protein X1 of SARS-CoV Urbani” value was 0.5, the “Binding of serum 37 to looped/cyclic peptide (PEPSCAN-ELISA)” value came to 0.5, the “Binding of serum 62 to linear peptides of protein X1 of SARS-CoV Urbani” value was determined as 0.4 and the “Binding of serum 62 to looped/cyclic peptide (PEPSCAN-ELISA)” value was 0.5. Also, in assay [2], the “Binding of serum London to linear peptides of protein X1 of SARS-CoV Urbani” value was determined as 0.2, the “Binding of serum London to looped/cyclic peptide (PEPSCAN-ELISA)” value stood at 0.2, the “Binding of serum SARS-green to linear peptides of protein X1 of SARS-CoV Urbani” value was 0.1 and the “Binding of serum SARS-green to looped/cyclic peptide (PEPSCAN-ELISA)” value is on record as 0.2. For the same sequence, in assay [2], the “Binding of serum SARS-yellow to linear peptides of protein X1 of SARS-CoV Urbani” value came out at 0.2 and the “Binding of serum SARS-yellow to looped/cyclic peptide (PEPSCAN-ELISA)” value amounted to 0.3. For the same sequence, in assay [3], the “Binding of a rabbit serum to linear peptides” value stood at 0.1 and the “Binding of a rabbit serum to looped peptides” value is 0.5.

In the case of EEVQQELYSPLFLIV, in assay [1], the “Binding of Control Serum Blood-Bank to Looped peptides” value is on record as 1.0, the “Binding of Control serum Blood-bank to linear peptides” value was 0.6, the “Binding of Control serum LUMC to linear peptides” value is given as 0.6 and the “Binding of Control serum LUMC to looped peptides” value was found to be 1.0. Further, in assay [2], the “Binding of serum 1a to linear peptides of protein X4 of SARS-CoV Urbani” value is on record as 0.7, the “Binding of serum 1b to linear peptides of protein X4 of SARS-CoV Urbani” value is recorded as 0.6, the “Binding of serum 2 to linear peptides of protein X4 of SARS-CoV Urbani” value is 0.6 and the “Binding of serum 6 to linear peptides of protein X4 of SARS-CoV Urbani” value is recorded as 0.6. For the same sequence, in assay [2], the “Binding of serum 37 to linear peptides of protein X4 of SARS-CoV Urbani” value turned out to be 0.7, the “Binding of serum 62 to linear peptides of protein X4 of SARS-CoV Urbani” value is 0.8, the “Binding of serum London to linear peptides of protein X4 of SARS-CoV Urbani” value came out at 0.7 and the “Binding of serum SARS-green to linear peptides of protein X4 of SARS-CoV Urbani” value turned out to be 0.7. Also, in assay [2], the “Binding of serum SARS-yellow to linear peptides of protein X4 of SARS-CoV Urbani” value is listed as 0.8; the “Recognition of the peptide by sera of SARS-CoV infected individuals, and form (linear, looped/cyclic) in which it is recognized” value is given as “recognized in looped/cyclic form”. Moreover, in assay [3], the “Rabbit serum linear peptides” value was 0.4 and the “Rabbit serum looped peptides” value came out at 0.5.

Take EGDGISTPKLKEDYQ: in assay [1], the “Binding of Control Serum Blood-Bank to Looped peptides” value is reported as 0.4, the “Binding of Control serum Blood-bank to linear peptides” value is 0.2, the “Binding of Control serum LUMC to linear peptides” value is 0.3 and the “Binding of Control serum LUMC to looped peptides” value is recorded as 0.4. For the same sequence, in assay [2], the “Binding of serum 1a to linear peptides of protein X1 of SARS-CoV Urbani” value was found to be 0.6, the “Binding of serum 1a to looped/cyclic peptides of protein X1 of SARS-CoV Urbani” value is reported as 0.4, the “Binding of serum 1b to linear peptides of protein X1 of SARS-CoV Urbani” value stood at 0.3 and the “Binding of serum 1b to looped/cyclic peptides of protein X1 of SARS-CoV Urbani” value came out at 0.3. In assay [2], the “Binding of serum 2 to linear peptides of protein X1 of SARS-CoV Urbani” value amounted to 0.6, the “Binding of serum 2 to looped/cyclic peptides of protein X1 of SARS-CoV Urbani” value is 0.2, the “Binding of serum 6 to linear peptides of protein X1 of SARS-CoV Urbani” value is 0.3 and the “Binding of serum 6 to looped/cyclic peptides of protein X1 of SARS-CoV Urbani” value was 0.2. Moreover, in assay [2], the “Binding of serum 37 to linear peptides of protein X1 of SARS-CoV Urbani” value came out at 0.5, the “Binding of serum 37 to looped/cyclic peptides of protein X1 of SARS-CoV Urbani” value is given as 0.3, the “Binding of serum 62 to linear peptides of protein X1 of SARS-CoV Urbani” value was determined as 0.4 and the “Binding of serum 62 to looped/cyclic peptides of protein X1 of SARS-CoV Urbani” value is recorded as 0.3. In assay [2], the “Binding of serum London to linear peptides of protein X1 of SARS-CoV Urbani” value is listed as 0.3, the “Binding of serum London to looped/cyclic peptides of protein X1 of SARS-CoV Urbani” value came to 0.2, the “Binding of serum SARS-green to linear peptides of protein X1 of SARS-CoV Urbani” value is 0.2 and the “Binding of serum SARS-green to looped/cyclic peptides of protein X1 of SARS-CoV Urbani” value is reported as 0.2. Besides, in assay [2], the “Binding of serum SARS-yellow to linear peptides of protein X1 of SARS-CoV Urbani” value came out at 0.2 and the “Binding of serum SARS-yellow to looped/cyclic peptides of protein X1 of SARS-CoV Urbani” value is reported as 0.1. Moreover, in assay [3], the “Binding of a rabbit serum to linear peptides” value is 0.1 and the “Binding of a rabbit serum to looped peptides” value was found to be 0.4.

As for EITVATSRTLSYYKL, in assay [1], the “Binding of Control Serum Blood-Bank to Looped peptides of the protein M of SARS-CoV Urbani” value is on record as 0.7, the “Binding of Control serum Blood-bank to linear peptides of the protein M of SARS-CoV Urbani” value came out at 0.7, the “Binding of Control serum LUMC to linear peptides of the protein M of SARS-CoV Urbani” value is listed as 0.4 and the “Binding of Control serum LUMC to looped peptides of the protein M of SARS-CoV Urbani” value is on record as 0.6. In assay [2], the “Binding of serum 1a to linear peptides of protein M of SARS-CoV Urbani” value worked out at 0.7, the “Binding of serum 1a to looped/cyclic peptides of protein M of SARS-CoV Urbani” value was determined as 0.6, the “Binding of serum 1b to linear peptides of protein M of SARS-CoV Urbani” value stood at 0.5 and the “Binding of serum 1b to looped/cyclic peptides of protein M of SARS-CoV Urbani” value turned out to be 0.4. Besides, in assay [2], the “Binding of serum 2 to linear peptides of protein M of SARS-CoV Urbani” value turned out to be 0.6, the “Binding of serum 2 to looped/cyclic peptides of protein M of SARS-CoV Urbani” value stood at 0.5, the “Binding of serum 6 to linear peptides of protein M of SARS-CoV Urbani” value worked out at 0.4 and the “Binding of serum 6 to looped/cyclic peptides of protein M of SARS-CoV Urbani” value turned out to be 0.5. Besides, in assay [2], the “Binding of serum 37 to linear peptides of protein M of SARS-CoV Urbani” value turned out to be 0.8, the “Binding of serum 37 to looped/cyclic peptides of protein M of SARS-CoV Urbani” value turned out to be 0.5, the “Binding of serum 62 to linear peptides of protein M of SARS-CoV Urbani” value was found to be 0.9 and the “Binding of serum 62 to looped/cyclic peptides of protein M of SARS-CoV Urbani” value is on record as 0.5. In assay [2], the “Binding of serum London to linear peptides of protein M of SARS-CoV Urbani” value is 0.3, the “Binding of serum London to looped/cyclic peptides of protein M of SARS-CoV Urbani” value was 0.2, the “Binding of serum SARS-green to linear peptides of protein M of SARS-CoV Urbani” value stood at 0.4 and the “Binding of serum SARS-green to looped/cyclic peptides of protein M of SARS-CoV Urbani” value was found to be 0.3. In addition, in assay [2], the “Binding of serum SARS-yellow to linear peptides of protein M of SARS-CoV Urbani” value is 0.1 and the “Binding of serum SARS-yellow to looped/cyclic peptides of protein M of SARS-CoV Urbani” value stood at 0.5. Besides, in assay [3], the “Rabbit serum linear peptides” value amounted to 0.7 and the “Rabbit serum looped peptides” value is 0.1.
